Measurements reported in patent publication US20210369642A1, “THERAPEUTIC CANNABINOID DERIVATIVES COMPOSITION AS HISTAMINE 2 (H2) BLOCKING AGENTS” (priority 2018, published 2021).

Columns and labels:
Type in all cases: cell-based
HRH1 [1] = biological target: T1, HRH1 (Homo sapiens, UniProt P35367); experiment: Calcium Flux assay, antagonist mode; conditions: for % Response Average / % Response Replicate 1 / % Response Replicate 2: 10 uM, Calcium Flux, HRH1, Antagonist mode; for antagonist activity against H1 (in words): single concentration of 10 μM
T1 sequence (P35367 whole entry): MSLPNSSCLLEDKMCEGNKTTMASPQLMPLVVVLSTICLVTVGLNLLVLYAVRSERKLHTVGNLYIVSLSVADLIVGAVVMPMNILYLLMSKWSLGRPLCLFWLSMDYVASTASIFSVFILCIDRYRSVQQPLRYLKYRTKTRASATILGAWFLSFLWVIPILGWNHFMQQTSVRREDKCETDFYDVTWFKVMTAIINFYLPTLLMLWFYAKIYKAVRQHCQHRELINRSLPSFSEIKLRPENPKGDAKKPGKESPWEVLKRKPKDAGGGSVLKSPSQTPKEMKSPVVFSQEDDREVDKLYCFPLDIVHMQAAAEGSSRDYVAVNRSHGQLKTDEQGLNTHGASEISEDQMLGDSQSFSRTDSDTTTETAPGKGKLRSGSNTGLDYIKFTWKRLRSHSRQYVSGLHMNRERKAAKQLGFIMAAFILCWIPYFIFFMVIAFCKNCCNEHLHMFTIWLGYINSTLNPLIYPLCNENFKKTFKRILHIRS

HRH2 [2] = biological target: T2, HRH2 (Homo sapiens, UniProt P25021); experiment: H2 blockade assay: cAMP assay, antagonist mode (agonist challenge at EC80); conditions: for antagonist activity against H2 (in words): in-vitro
T2 sequence (P25021 whole entry, the tested form may be a part): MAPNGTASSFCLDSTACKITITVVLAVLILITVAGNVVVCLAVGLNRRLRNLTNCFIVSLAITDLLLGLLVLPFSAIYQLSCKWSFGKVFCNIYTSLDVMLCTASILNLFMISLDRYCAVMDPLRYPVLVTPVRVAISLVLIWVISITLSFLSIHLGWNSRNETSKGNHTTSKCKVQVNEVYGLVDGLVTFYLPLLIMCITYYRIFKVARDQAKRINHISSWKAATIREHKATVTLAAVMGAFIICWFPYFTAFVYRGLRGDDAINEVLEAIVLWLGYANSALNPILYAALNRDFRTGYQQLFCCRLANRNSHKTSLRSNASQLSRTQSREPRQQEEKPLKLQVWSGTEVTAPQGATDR
Description: The cAMP assays can monitor the activation of a GPCR via Gi and Gs secondary messenger signalling in a homogenous, non-imaging assay format using, for example, a technology developed by DiscoverX called Enzyme Fragment Complementation (EFC) with β-galactosidase (β-Gal) as the functional reporter.
The cannabinoid-based pharmaceutical composition according to FIG. 1 was subjected to an H2 blockade assay. For antagonist determination, cells were pre-incubated with sample followed by agonist challenge at the EC80 concentration. Media was aspirated from cells and replaced with 10 μL 1:1 BSS/Hepes: cAMP XS+ Ab reagent. 5 μL of 4X compound was added to the cells and incubated at […] or room temperature for 30 minutes. 5 μL of 4X EC80 agonist was added to cells and incubated at 37° C. or room temperature for 30 or 60 minutes.
The enzyme is split into two complementary portions, Enzyme Acceptor (EA) and Enzyme Donor (ED). ED is fused to cAMP and in the assay competes with cAMP generated by cells for binding to a cAMP-specific antibody. Active β-Gal is formed by complementation of exogenous EA to any unbound ED-cAMP.

HRH2 [3] = biological target: T2, HRH2; experiment: cAMP assay, agonist mode; conditions: for % Response Average / % Response Replicate 1 / % Response Replicate 2: 10 uM, cAMP, HRH2, Agonist mode
HRH1 [4] = biological target: T1, HRH1; experiment: Calcium Flux assay, agonist mode; conditions: for % Response Average / % Response Replicate 1 / % Response Replicate 2: 10 uM, Calcium Flux, HRH1, Agonist mode
[5] = 10 uM, cAMP, HRH2, Antagonist mode

SMILES	% Response Average (HRH1 [1]) [%]	% Response Replicate 1 (HRH1 [1]) [%]	% Response Replicate 2 (HRH1 [1]) [%]	antagonist activity against H1 (in words) (HRH1 [1])	IC50 (HRH2 [2]; dose-response / concentration dependent assay) [nM]	antagonist activity against H2 (in words) (HRH2 [2])	inhibition at 10 µM (HRH2 [2]; preliminary assay, single concentration of 10 μM, read-out: inhibited H2 by %) [%]	% Response Average (HRH2 [3]) [%]	% Response Replicate 1 (HRH2 [3]) [%]	% Response Replicate 2 (HRH2 [3]) [%]	agonist activity against H2 (in words) (HRH2 [3]; single concentration of 10 μM)	% Response Average (HRH1 [4]) [%]	% Response Replicate 1 (HRH1 [4]) [%]	% Response Replicate 2 (HRH1 [4]) [%]	agonist activity against H1 (in words) (HRH1 [4]; single concentration of 10 μM)	% Response Average (HRH2 [2]; [5]) [%]	% Response Replicate 1 (HRH2 [2]; [5]) [%]	% Response Replicate 2 (HRH2 [2]; [5]) [%]
C=C(C)[C@@H]1CCC(C)=C[C@H]1c1c(O)cc(CCCCC)cc1O [CBD, Cannabidiol]	10.1	7.6	12.5	no agonist or antagonist activity	1530	potent antagonist	91.5	5.1	4.7	5.5	no agonist activity	0.3	0.3	0.2	no agonist or antagonist activity			
CCCCCc1cc(O)c2c(c1)OC(C)(C)[C@@H]1CCC(C)=C[C@@H]21 [THC, Tetrahydrocannabinol, reference compound]	78.2	77.0	79.3	showed antagonist activity		none		3.2	4.3	2.0		−0.7	−0.5	−0.9		7.7	−2.0	17.3
